# Test results: patent US9006450B2 (Boehringer Ingelheim International GmbH, priority 2010, dated 2015)
# Where two headings read alike, the source gives them in different places.
# Target: T1, human ACC2 (Homo sapiens, UniProt O00763)
# T1 construct: made in house; host or cells: insect cells (baculoviral expression system)
# Test: ACC2 assay, spectrophotometric 384 well assay (NADH-linked, coupled lactate dehydrogenase/pyruvate kinase)
# Assay type: biochemical
# Conditions: hACC2 construct lacking 128 N-terminal amino acids, 25° C., 340 nm
# In short: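 Human ACC2 lacking N-terminal 128 aa, baculovirus/insect-cell expressed, anion-exchange purified; 100 mM Tris pH 7.5, 10 mM citrate, 25 mM KHCO3, 1% DMSO. Started with 200 μM NADH and acetyl-CoA plus 500 μM ATP; PK/LDH-coupled A340 decrease read 15 min at 25° C. IC50 by nonlinear fit of low-control-subtracted slopes.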
# T1 sequence (O00763 129-2458 limits assumed): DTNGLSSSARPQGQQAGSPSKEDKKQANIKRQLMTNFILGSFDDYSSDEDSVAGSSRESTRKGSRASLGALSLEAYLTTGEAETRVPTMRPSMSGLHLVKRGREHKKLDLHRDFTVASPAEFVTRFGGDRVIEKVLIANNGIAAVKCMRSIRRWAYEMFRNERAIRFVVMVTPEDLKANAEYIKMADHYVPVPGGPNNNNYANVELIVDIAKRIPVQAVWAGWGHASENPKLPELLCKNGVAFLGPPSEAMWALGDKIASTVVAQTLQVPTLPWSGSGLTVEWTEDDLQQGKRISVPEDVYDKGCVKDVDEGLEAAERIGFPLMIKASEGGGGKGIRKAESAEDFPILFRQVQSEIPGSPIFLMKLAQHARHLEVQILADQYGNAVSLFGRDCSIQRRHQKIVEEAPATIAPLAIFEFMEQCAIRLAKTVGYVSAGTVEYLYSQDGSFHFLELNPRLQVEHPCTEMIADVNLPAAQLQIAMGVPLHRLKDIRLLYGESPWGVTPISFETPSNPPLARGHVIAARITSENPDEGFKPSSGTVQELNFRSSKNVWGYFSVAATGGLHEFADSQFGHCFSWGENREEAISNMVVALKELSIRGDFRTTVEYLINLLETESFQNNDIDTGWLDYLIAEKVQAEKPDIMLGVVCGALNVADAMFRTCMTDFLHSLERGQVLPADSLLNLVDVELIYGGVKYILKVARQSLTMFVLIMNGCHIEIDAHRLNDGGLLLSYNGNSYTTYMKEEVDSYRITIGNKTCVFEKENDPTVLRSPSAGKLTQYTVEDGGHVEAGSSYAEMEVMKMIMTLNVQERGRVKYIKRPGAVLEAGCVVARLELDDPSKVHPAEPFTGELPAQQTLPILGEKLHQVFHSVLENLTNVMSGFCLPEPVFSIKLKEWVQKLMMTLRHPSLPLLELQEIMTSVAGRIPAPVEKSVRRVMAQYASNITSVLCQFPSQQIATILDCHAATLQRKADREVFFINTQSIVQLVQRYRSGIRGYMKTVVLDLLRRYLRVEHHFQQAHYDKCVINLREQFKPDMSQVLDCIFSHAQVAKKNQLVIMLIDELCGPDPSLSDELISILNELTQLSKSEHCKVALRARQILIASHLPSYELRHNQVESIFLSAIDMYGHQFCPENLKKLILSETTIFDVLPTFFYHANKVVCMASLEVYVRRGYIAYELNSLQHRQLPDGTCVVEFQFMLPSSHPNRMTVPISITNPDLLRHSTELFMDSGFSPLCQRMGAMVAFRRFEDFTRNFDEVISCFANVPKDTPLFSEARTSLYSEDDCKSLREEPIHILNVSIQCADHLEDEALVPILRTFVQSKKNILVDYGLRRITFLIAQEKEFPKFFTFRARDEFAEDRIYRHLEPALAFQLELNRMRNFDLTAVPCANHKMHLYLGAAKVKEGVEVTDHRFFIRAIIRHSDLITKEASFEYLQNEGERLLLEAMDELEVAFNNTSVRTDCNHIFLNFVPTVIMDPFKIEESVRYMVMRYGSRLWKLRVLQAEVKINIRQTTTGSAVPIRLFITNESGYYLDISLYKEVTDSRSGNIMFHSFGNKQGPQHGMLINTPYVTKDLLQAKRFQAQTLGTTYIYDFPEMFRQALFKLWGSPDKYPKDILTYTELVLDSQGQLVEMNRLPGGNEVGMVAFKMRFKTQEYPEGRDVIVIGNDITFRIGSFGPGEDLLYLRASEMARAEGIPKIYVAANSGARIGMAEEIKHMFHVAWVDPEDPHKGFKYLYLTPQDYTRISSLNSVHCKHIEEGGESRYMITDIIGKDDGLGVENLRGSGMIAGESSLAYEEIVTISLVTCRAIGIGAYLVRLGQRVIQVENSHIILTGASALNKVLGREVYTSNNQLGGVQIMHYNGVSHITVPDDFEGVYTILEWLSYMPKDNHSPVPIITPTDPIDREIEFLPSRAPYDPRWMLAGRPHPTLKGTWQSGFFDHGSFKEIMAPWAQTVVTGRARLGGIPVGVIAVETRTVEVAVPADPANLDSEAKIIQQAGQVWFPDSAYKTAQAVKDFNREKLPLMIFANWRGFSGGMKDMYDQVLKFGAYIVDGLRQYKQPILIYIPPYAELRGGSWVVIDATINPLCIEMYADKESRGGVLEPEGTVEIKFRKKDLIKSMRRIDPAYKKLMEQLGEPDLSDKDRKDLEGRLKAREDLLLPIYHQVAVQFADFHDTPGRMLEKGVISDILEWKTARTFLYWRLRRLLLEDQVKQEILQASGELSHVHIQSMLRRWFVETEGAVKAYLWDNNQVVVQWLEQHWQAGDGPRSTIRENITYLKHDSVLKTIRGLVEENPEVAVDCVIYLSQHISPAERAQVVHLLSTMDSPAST
"IC50 (ACC2 assay, read-out: IC50) [nM]",Compound,"IC50 (IC50, ACC2 assay) [nM]"
580,"CC(=O)N[C@@H](C)c1ccc(C2CCN(c3ccc(OC4CCOCC4)cc3)CC2)cc1 [Example 7.1, (S)—N-[1-(4-{1-[4-(Tetrahydro-2H-pyran-4-yloxy)-phenyl]-piperidin-4-yl}-phenyl)-ethyl]-acetamide]",–
190,CC(=O)N[C@@H](C)c1ccc(C2CCN(c3cccc(OC4CCOCC4)c3)CC2)cc1 [Example 7.2],–
440,CCOCCOc1ccc(N2CCC(c3ccc([C@H](C)NC(C)=O)cc3)CC2)cc1 [Example 8.1],–
300,CCOCCOc1cccc(N2CCC(c3ccc([C@H](C)NC(C)=O)cc3)CC2)c1 [Example 8.2],–
200,CC(=O)N[C@@H](C)c1ccc(C2CCN(c3cccc(OCC4CC4)c3)CC2)cc1 [Example 8.3],–
400,CC(=O)N[C@@H](C)c1ccc(C2CCN(c3cccc(OCC(C)C)c3)CC2)cc1 [Example 8.4],–
220,CC(=O)N[C@@H](C)c1ccc(C2CCN(c3cccc(OC4CCCC4)c3)CC2)cc1 [Example 8.5],–
330,CCCCOc1cccc(N2CCC(c3ccc([C@H](C)NC(C)=O)cc3)CC2)c1 [Example 8.6],–
160,CC(=O)N[C@@H](C)c1ccc(C2CCN(c3cccc(OC(C)C)c3)CC2)cc1 [Example 8.7],–
290,CCCOc1cnc(N2CCC(c3ccc([C@H](C)NC(C)=O)cc3)CC2)cn1 [Example 8.8],–
600,CC(=O)N[C@@H](C)c1ccc(C2CCN(c3ccc(OC4COC4)cc3)CC2)cc1 [Example 8.9],–
100,CCOC(=O)C1(Oc2ccc(N3CCC(c4ccc([C@H](C)NC(C)=O)cc4)CC3)cc2)CCC1 [Example 8.10],–
1800,CC(=O)N[C@@H](C)c1ccc(C2CCN(c3ccc(OC4CCC4)c(C)c3)CC2)cc1 [Example 8.11],–
2300,CC(=O)N[C@@H](C)c1ccc(C2CCN(c3ccc(OC4CCC4)c(C#N)c3)CC2)cc1 [Example 8.12],–
110,CC(=O)N[C@@H](C)c1ccc(C2CCN(c3ccc(OC4CCC4)c(F)c3)CC2)cc1 [Example 8.13],–
130,CC(=O)N[C@@H](C)c1ccc(C2CCN(c3ccc(OC4CCC4)c(Cl)c3)CC2)cc1 [Example 8.14],–
830,CCOc1ccc(N2CCC(c3ccc([C@H](C)NC(C)=O)cc3)CC2)cc1C [Example 8.15],–
5600,CCOc1ccc(N2CCC(c3ccc([C@H](C)NC(C)=O)cc3)CC2)cc1C#N [Example 8.16],–
290,CCOc1ccc(N2CCC(c3ccc([C@H](C)NC(C)=O)cc3)CC2)cc1F [Example 8.17],–
2700,CCOc1ccc(N2CCC(c3ccc([C@H](C)NC(C)=O)cc3)CC2)cc1OC [Example 8.18],–
6000,COCCOc1ccc(N2CCC(c3ccc([C@H](C)NC(C)=O)cc3)CC2)cc1C [Example 8.19],–
12000,COCCOc1ccc(N2CCC(c3ccc([C@H](C)NC(C)=O)cc3)CC2)cc1C#N [Example 8.20],–
1500,COCCOc1ccc(N2CCC(c3ccc([C@H](C)NC(C)=O)cc3)CC2)cc1F [Example 8.21],–
14600,COCCOc1ccc(N2CCC(c3ccc([C@H](C)NC(C)=O)cc3)CC2)cc1OC [Example 8.22],–
570,CC(=O)N[C@@H](C)c1ccc(C2CCN(c3ccc(OC(C)C)c(C)c3)CC2)cc1 [Example 8.23],–
12400,CC(=O)N[C@@H](C)c1ccc(C2CCN(c3ccc(OC(C)C)c(C#N)c3)CC2)cc1 [Example 8.24],–
710,CC(=O)N[C@@H](C)c1ccc(C2CCN(c3ccc(OC(C)C)c(Cl)c3)CC2)cc1 [Example 8.25],–
840,CC(=O)N[C@@H](C)c1ccc(C2CCN(c3ccc(OCC(C)C)c(C)c3)CC2)cc1 [Example 8.26],–
2600,CC(=O)N[C@@H](C)c1ccc(C2CCN(c3ccc(OCC(C)C)c(C#N)c3)CC2)cc1 [Example 8.27],–

# More lines, now with the values behind:
Compound,"IC50 (ACC2 assay, read-out: IC50) [nM]","IC50 (IC50, ACC2 assay) [nM]"
"CCOc1ccc(N2CCC(c3ccc([C@H](C)NC(=O)CC#N)cc3)CC2)cc1 [Example 6.1, (S)-2-Cyano-N-(1-{4-[1-(4-ethoxy-phenyl)-piperidin-4-yl]-phenyl}-ethyl)-acetamide]",460,–
CCOc1ccc(N2CCC(c3ccc([C@H](C)NC(=O)c4ccco4)cc3)CC2)cc1 [Example 6.4],2100,–
CCOc1ccc(N2CCC(c3ccc([C@H](C)NC(=O)C4CCC4)cc3)CC2)cc1 [Example 6.7],770,–
CCOc1ccc(N2CCC(c3ccc([C@H](C)NC(=O)CC)cc3)CC2)cc1 [Example 6.8],190,–
CCOc1ccc(N2CCC(c3ccc([C@H](C)NC(=O)C4(C)CC4)cc3)CC2)cc1 [Example 6.9],150,–
CCOc1ccc(N2CCC(c3ccc([C@H](C)NC(=O)c4cn[nH]c4)cc3)CC2)cc1 [Example 6.10],250,–
CCOc1ccc(N2CCC(c3ccc([C@H](C)NC(=O)c4cncs4)cc3)CC2)cc1 [Example 6.11],340,–
CCOc1ccc(N2CCC(c3ccc([C@H](C)NC(=O)c4ccno4)cc3)CC2)cc1 [Example 6.12],1300,–
CCOc1ccc(N2CCC(c3ccc([C@H](C)NC(=O)CC4CC4)cc3)CC2)cc1 [Example 6.13],1100,–
CCOc1ccc(N2CCC(c3ccc([C@H](C)NC(=O)CF)cc3)CC2)cc1 [Example 6.14],–,190
CCOc1ccc(N2CCC(c3ccc([C@H](C)NC(=O)COC)cc3)CC2)cc1 [Example 6.15],1000,–
C=CCC(=O)N[C@@H](C)c1ccc(C2CCN(c3ccc(OCC)cc3)CC2)cc1 [Example 6.16],570,–
CCOCC(=O)N[C@@H](C)c1ccc(C2CCN(c3ccc(OCC)cc3)CC2)cc1 [Example 6.17],1900,–
CCOc1ccc(N2CCC(c3ccc([C@H](C)NC(=O)C4CC4C)cc3)CC2)cc1 (some centres unmarked) [Example 6.18],1100,–
CCOc1ccc(N2CCC(c3ccc([C@H](C)NC(=O)c4ccnnc4)cc3)CC2)cc1 [Example 6.19],1500,–
CCOc1ccc(N2CCC(c3ccc([C@H](C)NC(=O)C4(C#N)CC4)cc3)CC2)cc1 [Example 6.20],670,–
CCOc1ccc(N2CCC(c3ccc([C@H](C)NC(=O)Cc4ccccc4)cc3)CC2)cc1 [Example 6.21],1600,–
CCOc1ccc(N2CCC(c3ccc([C@H](C)NC(=O)c4ccc[nH]4)cc3)CC2)cc1 [Example 6.22],670,–
CCOc1ccc(N2CCC(c3ccc([C@H](C)NC(=O)C4CC4(F)F)cc3)CC2)cc1 (some centres unmarked) [Example 6.23],420,–
CCOc1ccc(N2CCC(c3ccc([C@H](C)NC(=O)c4cnc[nH]4)cc3)CC2)cc1 [Example 6.24],3900,–
CCOc1ccc(N2CCC(c3ccc([C@H](C)NC(=O)c4cnco4)cc3)CC2)cc1 [Example 6.25],340,–
CCOc1ccc(N2CCC(c3ccc([C@H](C)NC(=O)c4ccns4)cc3)CC2)cc1 [Example 6.26],280,–
CCOc1ccc(N2CCC(c3ccc([C@H](C)NC(=O)C4(C)COC4)cc3)CC2)cc1 [Example 6.27],4800,–

Compound,"IC50 (ACC2 assay, read-out: IC50) [nM]","IC50 (IC50, ACC2 assay) [nM]"
CCOc1ccc(N2CCC(c3ccc([C@H](C)NC(=O)Cn4ccnc4)cc3)CC2)cc1 [Example 6.28],1300,–
CCOc1ccc(N2CCC(c3ccc([C@H](C)NC(=O)c4cc[nH]n4)cc3)CC2)cc1 [Example 6.29],3600,–
CCOc1ccc(N2CCC(c3ccc([C@H](C)NC(=O)CCOC)cc3)CC2)cc1 [Example 6.30],1100,–
CCOc1ccc(N2CCC(c3ccc([C@H](C)NC(=O)c4cccnc4)cc3)CC2)cc1 [Example 6.31],2800,–
CCOc1ccc(N2CCC(c3ccc([C@H](C)NC(=O)Cc4cccnc4)cc3)CC2)cc1 [Example 6.32],860,–
CCOc1ccc(N2CCC(c3ccc([C@H](C)NC(=O)c4nccs4)cc3)CC2)cc1 [Example 6.33],3100,–
CCOc1ccc(N2CCC(c3ccc([C@H](C)NC(=O)C4(C(F)(F)F)CC4)cc3)CC2)cc1 [Example 6.34],250,–
CCOc1ccc(N2CCC(c3ccc([C@H](C)NC(=O)c4ncc[nH]4)cc3)CC2)cc1 [Example 6.35],7100,–
CCOc1ccc(N2CCC(c3ccc([C@H](C)NC(=O)c4cnon4)cc3)CC2)cc1 [Example 6.36],9100,–
CCOc1ccc(N2CCC(c3ccc([C@H](C)NC(=O)C4CC(OC)C4)cc3)CC2)cc1 (some centres unmarked) [Example 6.37],760,–
CCOc1ccc(N2CCC(c3ccc([C@H](C)NC(=O)C4CC(F)C4)cc3)CC2)cc1 (some centres unmarked) [Example 6.38],90,–
CCOc1ccc(N2CCC(c3ccc([C@H](C)NC(=O)CCC#N)cc3)CC2)cc1 [Example 6.39],1300,–
CCOc1ccc(N2CCC(c3ccc([C@H](C)NC(=O)c4ccncc4)cc3)CC2)cc1 [Example 6.40],1200,–
CCOc1ccc(N2CCC(c3ccc([C@H](C)NC(=O)c4ncn[nH]4)cc3)CC2)cc1 [Example 6.41],4100,–
CCOc1ccc(N2CCC(c3ccc([C@H](C)NC(=O)c4cncnc4)cc3)CC2)cc1 [Example 6.42],2800,–
CCOc1ccc(N2CCC(c3ccc([C@H](C)NC(=O)/C=N/OC)cc3)CC2)cc1 [Example 6.43],1100,–
CCOc1ccc(N2CCC(c3ccc([C@H](C)NC(=O)C(C)(C)OC)cc3)CC2)cc1 [Example 6.44],25000,–
CCOc1ccc(N2CCC(c3ccc([C@H](C)NC(=O)C4(C)CCC4)cc3)CC2)cc1 [Example 6.45],2600,–
CCOc1ccc(N2CCC(c3ccc([C@H](C)NC(=O)c4cscn4)cc3)CC2)cc1 [Example 6.46],10400,–
CCOc1ccc(N2CCC(c3ccc([C@H](C)NC(=O)c4cocn4)cc3)CC2)cc1 [Example 6.47],730,–
CCOc1ccc(N2CCC(c3ccc([C@H](C)NC(=O)CO)cc3)CC2)cc1 [Example 6.48],3700,–
CCOc1ccc(N2CCC(c3ccc([C@H](C)NC(=O)CNC(=O)OC(C)(C)C)cc3)CC2)cc1 [Example 6.49],8300,–
